In patent publication US12344597B2, “Alkoxy-substituted pyridinyl derivatives as LPA1 receptor antagonists and their use in the treatment of fibrosis” (IDORSIA PHARMACEUTICALS LTD, priority 2018, dated 2025):

Molecular target: human LPA1 receptor (Homo sapiens (Human), UniProt Q92633)
Assay: Beta-arrestin recruitment assay to determine IC50 values for human LPAR1
Format: cell-based
Conditions: antagonist mode, Tango EDG2-bla U2OS cells, LPA 18:1 500 nM final
Outline: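 Tango EDG2-bla U2OS cells: LPA-driven beta-arrestin/TEV protease recruitment releases Gal4-VP16, inducing beta-lactamase reporter read with live-cell substrate. Cells seeded 20 h at 37 °C beforehand. IC50 is antagonist concentration inhibiting 50% of maximal response.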

Chain of human LPA1 receptor (Q92633 whole entry): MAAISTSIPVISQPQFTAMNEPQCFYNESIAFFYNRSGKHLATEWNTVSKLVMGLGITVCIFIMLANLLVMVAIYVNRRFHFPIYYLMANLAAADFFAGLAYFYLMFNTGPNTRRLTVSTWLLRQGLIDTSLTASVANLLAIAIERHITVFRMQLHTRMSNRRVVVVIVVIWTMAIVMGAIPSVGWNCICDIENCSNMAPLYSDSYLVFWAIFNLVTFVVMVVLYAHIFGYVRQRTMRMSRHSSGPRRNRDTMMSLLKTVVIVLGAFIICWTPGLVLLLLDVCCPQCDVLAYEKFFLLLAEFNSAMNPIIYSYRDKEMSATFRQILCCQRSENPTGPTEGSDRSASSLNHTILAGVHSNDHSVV

| Compound | IC50 [µM] |
| --- | --- |
| COC(=O)C(C)(C)CNC(=O)N1CC(C(=O)Nc2ccc(C)nc2OC(F)F)(c2ccccc2C(C)C)C1 [Ex 17-16, methyl 3-(3-((2-(difluoromethoxy)-6-methylpyridin-3-yl)carbamoyl)-3-(2-isopropylphenyl)azetidine-1-carboxamido)-2,2-dimethylpropanoate] | 0.009 |
| Cc1ccc(NC(=O)C2(c3ccccc3C(C)C)CN(C(=O)CC3CCNCC3)C2)c(OC(F)F)n1 [Ex 12-138, N-(2-(difluoromethoxy)-6-methylpyridin-3-yl)-3-(2-isopropylphenyl)-1-(2-(piperidin-4-yl)acetyl)azetidine-3-carboxamide] | 0.043 |
| COC(=O)CCC(=O)N1CC(C(=O)Nc2ccc(C)nc2OC(C)C)(c2ccccc2C(C)C)C1 [Ex 12-67, methyl 4-(3-((2-isopropoxy-6-methylpyridin-3-yl)carbamoyl)-3-(2-isopropylphenyl)azetidin-1-yl)-4-oxobutanoate] | 0.075 |
| Cc1ccc(NC(=O)C2(c3ccccc3C(C)C)CN(C(=O)CNOCc3ccccc3)C2)c(OC(F)F)n1 [Ex 12-134, 1-((benzyloxy)glycyl)-N-(2-(difluoromethoxy)-6-methylpyridin-3-yl)-3-(2-isopropylphenyl)azetidine-3-carboxamide] | 0.006 |
| Methyl 4-(3-((5-bromo-3-(difluoromethoxy)pyridin-2-yl)carbamoyl)-3-(2-isopropylphenyl)azetidin-1-yl)-2,2-dimethyl-4-oxobutanoate [Ex 79-2] | 0.011 |
| COC(=O)[C@@H]1C[C@@H]1C(=O)N1CC(C(=O)Nc2ccc(C)nc2OC(F)F)(c2ccccc2C(C)C)C1 [Ex 12-96, methyl (1R,2S)-2-(3-((2-(difluoromethoxy)-6-methylpyridin-3-yl)carbamoyl)-3-(2-isopropylphenyl)azetidine-1-carbonyl)cyclopropane-1-carboxylate] | 0.034 |
| Cc1ccc(NC(=O)C2(c3ccccc3C(C)C)CN(C(=O)[C@H](O)[C@@H](O)C(=O)O)C2)c(OC(F)F)n1 [Ex 12-118, (2R,3R)-4-(3-((2-(difluoromethoxy)-6-methylpyridin-3-yl)carbamoyl)-3-(2-isopropylphenyl)azetidin-1-yl)-2,3-dihydroxy-4-oxobutanoic acid] | 0.03 |
| Cc1ccc(NC(=O)C2(c3ccccc3C(C)C)CN(C(=O)Cc3cc(O)n[nH]3)C2)c(OC(F)F)n1 [Ex 12-24, N-(2-(difluoromethoxy)-6-methylpyridin-3-yl)-1-(2-(3-hydroxy-1H-pyrazol-5-yl)acetyl)-3-(2-isopropylphenyl)azetidine-3-carboxamide] | 0.019 |
| COC(=O)Cn1cccc1CN1CC(C(=O)Nc2ccc(C)nc2OC(F)F)(c2ccccc2C(C)C)C1 [Ex 11-41, methyl 2-(2-((3-((2-(difluoromethoxy)-6-methylpyridin-3-yl)carbamoyl)-3-(2-isopropylphenyl)azetidin-1-yl)methyl)-1H-pyrrol-1-yl)acetate] | 0.067 |
| CC(C)c1ccccc1C1(C(=O)Nc2cccnc2OC(F)F)CN(S(=O)(=O)CCC(=O)OCc2ccccc2)C1 [Ex 13-9, benzyl 3-((3-((2-(difluoromethoxy)pyridin-3-yl)carbamoyl)-3-(2-isopropylphenyl)azetidin-1-yl)sulfonyl)propanoate] | 0.037 |
| Cc1ccc(NC(=O)C2(c3ccccc3C(C)C)CN(Cc3n[nH]cc3C(=O)O)C2)c(OC(F)F)n1 [Ex 11-40, 3-((3-((2-(difluoromethoxy)-6-methylpyridin-3-yl)carbamoyl)-3-(2-isopropylphenyl)azetidin-1-yl)methyl)-1H-pyrazole-4-carboxylic acid] | 0.27 |
| Cc1ccc(NC(=O)C2(c3ccccc3C3CCOCC3)CNC2)c(OC(F)F)n1 [Ex 28, N-(2-(difluoromethoxy)-6-methylpyridin-3-yl)-3-(2-(tetrahydro-2H-pyran-4-yl)phenyl)azetidine-3-carboxamide] | 0.023 |
| Cc1ccc(NC(=O)C2(c3ccccc3C(C)C)CN(c3cc(F)ccn3)C2)c(OC(F)F)n1 [Ex 18-18, N-(2-(difluoromethoxy)-6-methylpyridin-3-yl)-1-(4-fluoropyridin-2-yl)-3-(2-isopropylphenyl)azetidine-3-carboxamide] | 0.001 |
| COC(=O)C(C)(C)CCN1CC(C(=O)Nc2ncc(Cl)cc2OC(F)F)(c2ccccc2C(C)C)C1 [Ex 78-1, methyl 4-(3-((5-chloro-3-(difluoromethoxy)pyridin-2-yl)carbamoyl)-3-(2-isopropylphenyl)azetidin-1-yl)-2,2-dimethylbutanoate] | 0.457 |
| COC(=O)C(C)(C)COC(=O)N1CC(C(=O)Nc2ccc(C)nc2OC(F)F)(c2ccccc2C(C)C)C1 [Ex 14-9, 3-methoxy-2,2-dimethyl-3-oxopropyl 3-((2-(difluoromethoxy)-6-methylpyridin-3-yl)carbamoyl)-3-(2-isopropylphenyl)azetidine-1-carboxylate] | 0.042 |
| Cc1ccc(NC(=O)C2(c3ccccc3C(C)C)CN(C(=O)CC3CCC(C(=O)O)CC3)C2)c(OC(F)F)n1 (centres unmarked) [Ex 52, 4-(2-(3-((2-(difluoromethoxy)-6-methylpyridin-3-yl)carbamoyl)-3-(2-isopropylphenyl)azetidin-1-yl)-2-oxoethyl)cyclohexane-1-carboxylic acid] | 0.051 |
| COC(=O)CCC(=O)N1CCC(C(=O)Nc2ccc(C)nc2OC(F)F)(c2ccccc2C(C)C)CC1 [Ex 12-72, methyl 4-(4-((2-(difluoromethoxy)-6-methylpyridin-3-yl)carbamoyl)-4-(2-isopropylphenyl)piperidin-1-yl)-4-oxobutanoate] | 0.004 |
| Cc1ccc(NC(=O)C2(c3ccccc3C(C)C)CN(CC(C)N)C2)c(OC(F)F)n1 (centres unmarked) [Ex 11-11, 1-(2-aminopropyl)-N-(2-(difluoromethoxy)-6-methylpyridin-3-yl)-3-(2-isopropylphenyl)azetidine-3-carboxamide] | 0.005 |
| Cc1ccc(NC(=O)C2(c3ccccc3C(C)C)CN(S(=O)(=O)c3cn[nH]c3C(=O)O)C2)c(OC(F)F)n1 [Ex 13-23, 4-((3-((2-(difluoromethoxy)-6-methylpyridin-3-yl)carbamoyl)-3-(2-isopropylphenyl)azetidin-1-yl)sulfonyl)-1H-pyrazole-5-carboxylic acid] | 0.1 |
| Cc1ccc(NC(=O)C2(c3ccccc3C(C)C)CN(S(=O)(=O)NCC(=O)O)C2)c(OC(F)F)n1 [Ex 15-2, ((3-((2-(difluoromethoxy)-6-methylpyridin-3-yl)carbamoyl)-3-(2-isopropylphenyl)azetidin-1-yl)sulfonyl)glycine] | 0.007 |
| CCOC(=O)c1cnc(N2CC(C(=O)Nc3ccc(C)nc3OC(F)F)(c3ccccc3C(C)C)C2)o1 [Ex 18-31, ethyl 2-(3-((2-(difluoromethoxy)-6-methylpyridin-3-yl)carbamoyl)-3-(2-isopropylphenyl)azetidin-1-yl)oxazole-5-carboxylate] | 0.02 |
| Cc1ccc(NC(=O)C2(c3ccccc3C(C)C)CN(S(=O)(=O)CCCCC(=O)O)C2)c(OC(F)F)n1 [Ex 13-19, 5-((3-((2-(difluoromethoxy)-6-methylpyridin-3-yl)carbamoyl)-3-(2-isopropylphenyl)azetidin-1-yl)sulfonyl)pentanoic acid] | 0.055 |
| Cc1ccc(NC(=O)C2(c3ccccc3C(C)C)CN(C(=O)CNC[C@@H](C)O)C2)c(OC(F)F)n1 [Ex 12-55, (R)-N-(2-(difluoromethoxy)-6-methylpyridin-3-yl)-1-((R)-(2-hydroxypropyl)glycyl)-3-(2-isopropylphenyl)azetidine-3-carboxamide] | 0.003 |
